Source: patent US20150065470A1, “Steroid Sulfatase Inhibitor Regimen for the Treatment of Endometriosis” (priority 2012, published 2015)
“And” between values parts separate entries of the source, which are not always exact repeats. Equal entries are not always repeated. Where two headings read alike, the source gives them in different places.

How the values were obtained:
STS [1] = assay: E1-S to E1 and DHEA-S to DHEA ratios, Example 1; type: in vivo, human; settings: multiple doses 0.25, 1, 4 mg weekly x4
Protocol: (§1) Pharmacodynamic properties were investigated by assessment of the STS activity in PBMCs and by measurement of the serum hormonal profile comprising the ratio of E1-S to E1 and DHEA-S to DHEA. […] Hormone profiles were analysed using commercially available ELISA or RIA kits.

E2 and P4; T and D4A = assay: Hormone profiles (E2, P4, T, D4A), Example 2; type: in vivo, human
Protocol: (§2) Hormone profiles were determined as described in Example 1.

E2 (serum estradiol) = assay: Serum hormonal profile incl. estradiol concentrations, Example 1; type: in vivo, human
Protocol: as §1

STS [2] = target: T1, STS (Homo sapiens, UniProt P08842); settings: cited from earlier work
T1 sequence (P08842 22-583): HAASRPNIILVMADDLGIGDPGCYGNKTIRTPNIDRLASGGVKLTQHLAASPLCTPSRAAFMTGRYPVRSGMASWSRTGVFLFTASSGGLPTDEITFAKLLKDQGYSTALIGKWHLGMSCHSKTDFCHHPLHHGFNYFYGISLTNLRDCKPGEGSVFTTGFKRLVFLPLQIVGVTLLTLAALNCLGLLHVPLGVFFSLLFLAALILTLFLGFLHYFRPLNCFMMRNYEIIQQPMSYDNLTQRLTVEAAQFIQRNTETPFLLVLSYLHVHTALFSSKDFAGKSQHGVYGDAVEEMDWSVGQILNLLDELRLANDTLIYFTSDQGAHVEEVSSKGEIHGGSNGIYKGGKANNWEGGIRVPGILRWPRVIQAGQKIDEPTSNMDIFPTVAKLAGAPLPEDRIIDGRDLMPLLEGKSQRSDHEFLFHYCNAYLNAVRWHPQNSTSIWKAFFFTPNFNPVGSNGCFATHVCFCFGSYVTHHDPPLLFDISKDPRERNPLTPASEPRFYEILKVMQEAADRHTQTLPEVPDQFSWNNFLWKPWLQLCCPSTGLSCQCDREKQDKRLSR

[3] = target: T2, Steroid Sulfatase in PBMCs (Homo sapiens, UniProt P08842); assay: STS activity in PBMCs, Example 1 (radio scintillation assay); type: in vivo; settings: for Emax: read-out: Emax (%) maximal inhibition of Steroid Sulfatase in PBMCs, Mean (SD); for STS inhibition in PBMCs: single dose 4 mg E2MATE
T2 construct: Pharmacodynamic properties were investigated by assessment of the STS activity in PBMCs; endogenous in cells; host or cells: peripheral blood mononuclear cells (PBMCs) of dosed women
T2 sequence (P08842 22-583): T1 sequence (P08842 22-583)
Protocol: (§3) Treatment was started within 72 hours after the beginning of menstrual bleeding.
The active doses tested were 0.25 mg (1st cohort), 1 mg, 4 mg and 8 mg.
The active doses tested were 0.25 mg, 1 mg and 4 mg.
(§4) Ovarian and endometrium transvaginal ultrasounds throughout the study (Part A and B) and an endometrial biopsy (Part B only) were performed.
as §1

[4] = Safety, tolerability and post-treatment menstruation cycles, Example 2
Text: Menstruation cycle length was not influenced by the treatment. […] Sizes of right and left ovary differed slightly for each subject, but no clinically relevant changes were identified by the gynaecologists.

[5] = Safety, tolerability and ovarian cycle parameters, Example 1
Protocol: as §3, §4

[6] = target: T3, Steroid Sulfatase in endometrium (Homo sapiens, UniProt P08842); assay: STS activity in endometrium, Example 2 (LC-MS/MS); type: in vivo
T3 construct: from tissue; host or cells: endometrium (biopsies) of dosed women
T3 sequence (P08842 22-583): T1 sequence (P08842 22-583)
Protocol: STS activity was determined by spiking specimens with labelled E1-S and by measuring its conversion to E1 per gram protein under standardized incubation conditions using LC-MS/MS. Protein concentration was evaluated with a validated colorimetric assay (Bradford method).

[7] = target: T4, STS activity in Peripheral Blood Mononuclear Cells (PBMCs) (Homo sapiens, UniProt P08842); assay: STS inhibition in PBMCs, loading and maintenance phase, Example 4; type: in vivo; settings: concomitant NETA 5 mg daily, patients
T4 construct: Pharmacodynamic properties were investigated by assessment of the STS activity in PBMCs; endogenous in cells; host or cells: peripheral blood mononuclear cells (PBMCs) of dosed women
T4 sequence (P08842 22-583): T1 sequence (P08842 22-583)
Text: The study is multicentre, randomised, two-arm, parallel group, double-blind, placebo controlled where eligible subjects were randomised on study day 1 in a 1:1 ratio into treatment group A or B between day 1 and day 4 of the menstrual bleeding.
The baseline is established in terms of endometriosis profile regarding pelvic pain, dysmenorrhea, dyspaneuria and bleeding pattern and those parameters are followed during the treatment. During the loading phase the subjects are monitored on day 7, day 21 and on week 4 and during the maintenance phase monthly on week 8, week 12 and week 16.

STS [8] = assay: Functional biomarkers of STS activity (E1-S to E1 and DHEA-S to DHEA ratios), Example 2; type: in vivo, human
Protocol: as §2
As described before, STS converts sulphate precursors of estrogens.

[9] = multiple dose 0.25 mg weekly x4, Cycle 1
[10] = multiple dose 0.25 mg weekly x4, Cycle 2
[11] = multiple dose 0.25 mg weekly x4, Cycle 3
[12] = multiple dose 1 mg weekly x4, Cycle 1
[13] = multiple dose 1 mg weekly x4, Cycle 2
[14] = multiple dose 1 mg weekly x4, Cycle 3
[15] = multiple dose 4 mg weekly x4, Cycle 1
[16] = multiple dose 4 mg weekly x4, Cycle 2
[17] = multiple dose 4 mg weekly x4, Cycle 3
[18] = multiple dose 0.25 mg E2MATE weekly for four weeks
[19] = multiple dose 1 mg E2MATE weekly for four weeks
[20] = multiple dose 4 mg E2MATE weekly for four weeks
[21] = NETA treatment period, days 8 to 29

C[C@]12CC[C@@H]3c4ccc(OS(N)(=O)=O)cc4CC[C@H]3[C@@H]1CC[C@@H]2O [E2MATE, Estradiol-3-o-sulfamate]
turn-over of E1-S to E1 (STS [1]): dose-dependent decreased turn-over
mean concentration-time profiles in E2 and P4 (E2 and P4; T and D4A; first cycle up to Day 29, normal increase on Day 43): Normal mean concentration-time profiles
mean concentration-time profiles for T and D4A (E2 and P4; T and D4A; multiple dose administration): No relevant differences
Avg estradiol concentration, Mean (E2 (serum estradiol); [9]): 135.7 ng/L
Max estradiol concentration, Mean (E2 (serum estradiol); [9]): 305.3 ng/L
Avg estradiol concentration, Mean (E2 (serum estradiol); [10]): 116.0 ng/L
Max estradiol concentration, Mean (E2 (serum estradiol); [10]): 260.5 ng/L
Avg estradiol concentration, Mean (E2 (serum estradiol); [11]): 107.1 ng/L
Max estradiol concentration, Mean (E2 (serum estradiol); [11]): 185.4 ng/L
Avg estradiol concentration, Mean (E2 (serum estradiol); [12]): 126.0 ng/L
Max estradiol concentration, Mean (E2 (serum estradiol); [12]): 278.6 ng/L
Avg estradiol concentration, Mean (E2 (serum estradiol); [13]): 109.0 ng/L
Max estradiol concentration, Mean (E2 (serum estradiol); [13]): 193.4 ng/L
Avg estradiol concentration, Mean (E2 (serum estradiol); [14]): 110.0 ng/L
Max estradiol concentration, Mean (E2 (serum estradiol); [14]): 221.6 ng/L
Avg estradiol concentration, Mean (E2 (serum estradiol); [15]): 134.8 ng/L
Max estradiol concentration, Mean (E2 (serum estradiol); [15]): 317.8 ng/L
Avg estradiol concentration, Mean (E2 (serum estradiol); [16]): 100.9 ng/L
Max estradiol concentration, Mean (E2 (serum estradiol); [16]): 207.7 ng/L
Avg estradiol concentration, Mean (E2 (serum estradiol); [17]): 94.9 ng/L
Max estradiol concentration, Mean (E2 (serum estradiol); [17]): 180.9 ng/L
differences in mean concentration-time profiles of E2, P4, LH, FSH, T and D4A compared to placebo (E2 (serum estradiol); multiple dose administration): No clinically relevant dose-related differences
Avg (weighted average) estradiol concentration, Mean (E2 (serum estradiol); single dose 0.25 mg E2MATE): 141.2 ng/L
Max estradiol concentration, Mean (E2 (serum estradiol); single dose 0.25 mg E2MATE): 335.1 ng/L
Avg (weighted average) estradiol concentration, Mean (E2 (serum estradiol); single dose 1 mg E2MATE): 131.0 ng/L
Max estradiol concentration, Mean (E2 (serum estradiol); single dose 1 mg E2MATE): 318.1 ng/L
Avg (weighted average) estradiol concentration, Mean (E2 (serum estradiol); single dose 4 mg E2MATE): 113.8 ng/L
Max estradiol concentration, Mean (E2 (serum estradiol); single dose 4 mg E2MATE): 275.3 ng/L
Avg (weighted average) estradiol concentration, Mean (E2 (serum estradiol); single dose 8 mg E2MATE): 109.3 ng/L
Max estradiol concentration, Mean (E2 (serum estradiol); single dose 8 mg E2MATE): 221.1 ng/L
effects on mean concentration-time profiles of E2, P4, LH, FSH, T and D4A compared to placebo (E2 (serum estradiol); single dose administration): No clinically relevant effects
STS inhibition (STS [2]): active STS inhibitors
AVG (%) average inhibition of Steroid Sulfatase in PBMCs, Mean (SD) [3, 18]: 22.7 (16.5) %
Emax [3, 18]: 42%
AVG (%) average inhibition of Steroid Sulfatase in PBMCs, Mean (SD) [3, 19]: 43.5 (23.2) %
Emax [3, 19]: 79.5%
AVG (%) average inhibition of Steroid Sulfatase in PBMCs, Mean (SD) [3, 20]: 88.4 (9.5) %
Emax [3, 20]: 100%
Emax ([3]; po, single oral dose 0.25 mg E2MATE): 59.5%
Emax ([3]; po, single oral dose 1 mg E2MATE): 58.7%
Emax ([3]; po, single oral dose 4 mg E2MATE): 99.5%
STS inhibition in PBMCs ([3]; Day 0 of cycle 2 (approximately 56 days after dosing)): 82%
STS inhibition in PBMCs ([3]; Day 3): 96%
AVG (%) average inhibition of Steroid Sulfatase in PBMCs, Mean (SD) ([3]; single oral dose 0.25 mg E2MATE, Day 1 until EOS): 23.2 (14.6) %
AVG (%) average inhibition of Steroid Sulfatase in PBMCs, Mean (SD) ([3]; single oral dose 1 mg E2MATE, Day 1 until EOS): 25.2 (10.6) %
ovarian size ([4]; in vivo): no apparent effect
tolerability ([4]; multiple doses for 4 weeks, healthy pre-menopausal female subjects): well tolerated
cycle length ([5]; in vivo): not affected
endometrial thickness assessed by TVUS, between treatment groups ([5]; in vivo): no clinically relevant differences
number of measurable follicles / subjects with follicles >10 mm ([5]; in vivo): No clinically relevant effects
tolerability ([5]; multiple doses of 0.25, 1 mg and 4 mg weekly x4): well tolerated
tolerability ([5]; single doses of 0.25 mg, 1 mg, 4 mg and 8 mg): well tolerated
AVG [%] average inhibition of Steroid Sulfatase in endometrium (average effect over time (AUC)) ([6]; E2MATE 4 mg weekly and/or NETA 10 mg daily for 4 weeks): 66.6 (2.7) % and 66.60%
STS inhibition [%] in endometrium ([6]; end of treatment, between Day 25 and Day 29): 91% and 90.66%
Emax ([6]; read-out: Emax [%] maximal inhibition of Steroid Sulfatase in endometrium): 91%
STS inhibition [%] in endometrium, After treatment ([6]; third biopsy day, 1 month after the end of the treatment (approximately 50 days after dosing)): 88% and 87.50%
STS inhibition in PBMCs after the loading phase ([7]; Day 28, 16 mg over 4 weeks): almost complete
STS inhibition in PBMCs at maintenance dose ([7]; Day 56, 2 mg/week): almost entire
Baseline relative change of the DHEA-S/DHEA [%] (STS [8]; Day 1): 0%
Baseline relative change of the E1-S/E1 [%] (STS [8]; Day 1): 0%
Baseline relative change of the DHEA-S/DHEA [%] (STS [8]; Day 8): 133%
Baseline relative change of the E1-S/E1 [%] (STS [8]; Day 8): 208%
Baseline relative change of the DHEA-S/DHEA [%] (STS [8]; Day 15): 116%
Baseline relative change of the E1-S/E1 [%] (STS [8]; Day 15): 282%
Baseline relative change of the DHEA-S/DHEA [%] (STS [8]; Day 22): 113%
Baseline relative change of the E1-S/E1 [%] (STS [8]; Day 22): 218%
Baseline relative change of the DHEA-S/DHEA [%] (STS [8]; Day 29): 148%
Baseline relative change of the E1-S/E1 [%] (STS [8]; Day 29): 194%
Baseline relative change of the DHEA-S/DHEA [%] (STS [8]; Day 57): 195%
Baseline relative change of the E1-S/E1 [%] (STS [8]; Day 57): 218%
Baseline relative change of the DHEA-S/DHEA [%] (STS [8]; Day 85): 232%
Baseline relative change of the E1-S/E1 [%] (STS [8]; Day 85): 243%
Baseline relative change of the DHEA-S/DHEA [%] (STS [8]; Day 113): 175%
Baseline relative change of the E1-S/E1 [%] (STS [8]; Day 113): 400%
baseline relative mean increases of the DHEA-S to DHEA ratio (up to) (STS [8]; [21]): up to 265%
baseline relative mean increases of the E1-S to E1 ratio (up to) (STS [8]; [21]): up to 282%
